In US8614166B2, “Herbicidal composition for tolerant or resistant cotton crops” (Bayer Intellectual Property GmbH, priority 1998, dated 2013):
Structures can show the parent of a compound that is named as a salt.

Columns and labels:
Assay in all cases: Field trial in tolerant cotton, herbicidal action against weed
Assay type in all cases: in vivo
Sorghum halepense = settings: application in the 4-leaf stage, scoring 30 days after application
Method: (§1) Transgenic cotton plants with a resistance to one or more herbicides (A) together with typical weed plants were grown in the open on 2×5 m plots under natural field conditions; alternatively, weed infestation occurred naturally when the cotton plants were grown.
(§2) 2, 4, 6 and 8 weeks after the application, the herbicidal activity of the active substances or active substance mixtures was scored visually with reference to the treated plots in comparison to untreated control plots. The damage to, and the development of, all aerial parts of the plants was recorded. Scoring was done on the basis of a percentage sale (100% action=all plants destroyed; 50% action=50% of the plants and green parts of the plants destroyed; 0% action=no recognizable effect=like control plot. The mean of the score values of in each case 4 plots was calculated.

Ipomoea hederacea = settings: application in the 4-leaf stage, scoring 23 days after application
Method: as §1
(§3) […] The damage to, and the development of, all aerial parts of the plants was recorded. Scoring was done on the basis of a percentage sale (100% action=all plants destroyed; 50% action=50% of the plants and green parts of the plants destroyed; 0% action=no recognizable effect=like control plot. The mean of the score values of in each case 4 plots was calculated.

Datura stramonium = settings: application in the 4-5-leaf stage, scoring 3 weeks after application
Method: as §1, §3

Echinocloa colonum = settings: application in the 4-5-leaf stage, scoring 3 weeks after application
Method: as §1, §3

Abutilon theophrasti = settings: dose 300 g of a.s./ha; application in the 4-5 leaf stage; scoring 27 days after application
Method: as §1, §2

## CCCC(=NOCC)C1=C(O)CC(C2CCCSC2)CC1=O (stereo not shown) [(B4.2), 2-(1-ethoxyiminobutyl)-3-hydroxy-5-thian-3-ylcyclohex-2-enone]
Sorghum halepense; dose 125 g of a.s./ha
  Herbicidal action (%) against Sorghum halepense: 58%

## COc1cc(OC)nc(Sc2cccc(Cl)c2C(=O)[O-])n1.[Na+] [(B2.4), sodium 2-chloro-6-(4,6-dimethoxypyrimidin-2-ylthio)benzoate]
Ipomoea hederacea; dose 105 g of a.s./ha
  Herbicidal action (%) against Ipomoea hederacea: 42%

## CN(C)C(=O)Nc1cccc(C(F)(F)F)c1 [(B1.2), N,N-dimethyl-N′-[3-(trifluoromethyl)phenyl]urea]
Ipomoea hederacea; dose 1120 g of a.s./ha
  Herbicidal action (%) against Ipomoea hederacea: 37%

## CP(=O)(O)CCC(N)C(=O)O (stereo not shown) [(A1.2), glufosinate-monoammonium salt]
Datura stramonium; dose 450 g of a.s./ha
  Herbicidal action (%) against Datura stramonium: 75%
Datura stramonium; dose 600 g of a.s./ha
  Herbicidal action (%) against Datura stramonium: 90%
Datura stramonium; dose 1000 g of a.s./ha
  Herbicidal action (%) against Datura stramonium: 100%
Echinocloa colonum; dose 450 g of a.s./ha
  Herbicidal action (%) against Echinocloa colonum: 0%
Echinocloa colonum; dose 600 g of a.s./ha
  Herbicidal action (%) against Echinocloa colonum: 15%
Echinocloa colonum; dose 1000 g of a.s./ha
  Herbicidal action (%) against Echinocloa colonum: 30%
Ipomoea hederacea; dose 400 g of a.s./ha
  Herbicidal action (%) against Ipomoea hederacea: 43%
Ipomoea hederacea; dose 600 g of a.s./ha
  Herbicidal action (%) against Ipomoea hederacea: 75%
Abutilon theophrasti
  Herbicidal action (%) against Abutilon theophrasti: 30%
Sorghum halepense; dose 300 g of a.s./ha
  Herbicidal action (%) against Sorghum halepense: 15%
Sorghum halepense; dose 500 g of a.s./ha
  Herbicidal action (%) against Sorghum halepense: 53%

## CCc1cccc(C)c1N(C(=O)CCl)C(C)COC (stereo not shown) [(B1.9), 2-chloro-N-(2-ethyl-6-methylphenyl)-N-(2-methoxy-1-methylethyl)acetamide]
Datura stramonium; dose 930 g of a.s./ha
  Herbicidal action (%) against Datura stramonium: 0%
Echinocloa colonum; dose 930 g of a.s./ha
  Herbicidal action (%) against Echinocloa colonum: 88%

## CCC(CC)Nc1c([N+](=O)[O-])cc(C)c(C)c1[N+](=O)[O-] [(B1.12), N-(1-ethylpropyl)-2,6-dinitro-3,4-xylidine]
Ipomoea hederacea; dose 925 g of a.s./ha
  Herbicidal action (%) against Ipomoea hederacea: 42%

## N#Cc1cc(Br)c(O)c(Br)c1 [(B5.1), 3,5-dibromo-4-hydroxybenzonitrile]
Ipomoea hederacea; dose 560 g of a.s./ha
  Herbicidal action (%) against Ipomoea hederacea: 32%

## COCc1cnc(C2=NC(C)(C(C)C)C(=O)N2)c(C(=O)O)c1 (stereo not shown) [(A3.5), imazamox]
Ipomoea hederacea; dose 35 g of a.s./ha
  Herbicidal action (%) against Ipomoea hederacea: 42%
